{"source": "paper PMC10794144", "about": "“A novel antibiotic class targeting the lipopolysaccharide transporter” (Nature, 2024)", "key": {"A. baumannii [1]": {"system": "A. baumannii"}, "A. baumannii [2]": {"system": "A. baumannii", "assay": "Agar dilution MIC, Mueller–Hinton agar with 20% human serum", "format": "cell-based", "details": "Acinetobacter baumannii", "protocol": "Molten Mueller–Hinton agar (19 ml) supplemented with 20% human serum was added to 1 ml of compound at 20× the final concentration, poured immediately into Petri dishes (100 mm diameter) and gently mixed. Then, 2–3 colonies from agar plates were inoculated into CAMHB and incubated overnight under shaking (150 rpm). […] The agar plates were incubated aerobically at 35 ± 2 °C."}}, "note": "Read-outs that look alike come from different tables or passages of the source."}
{"smiles": "CN1C(=O)[C@H](CCCCN)NC(=O)[C@H](CCCN)NCc2cccnc2Sc2cccc(-c3ccc(C(=O)O)cc3)c2CNC(=O)[C@@H]1Cc1c[nH]c2ccccc12", "note": "[zosurabalpin]", "values": [{"measurement": "MIC_value", "setting": "A. baumannii [1]; ATCC 19606 clone 5E3, run AB19606_3280_HS, evolved in HS_MHB", "result": 8, "unit": "µM"}, {"measurement": "MIC_value", "setting": "A. baumannii [1]; ATCC 19606 clone 5E5, run AB19606_3280_HS, evolved in HS_MHB", "result": "<2", "unit": "µM"}, {"measurement": "MIC_value", "setting": "A. baumannii [1]; ATCC 19606 clone 5E6, run AB19606_3280_HS, evolved in HS_MHB", "result": 16, "unit": "µM"}, {"measurement": "MIC_value", "setting": "A. baumannii [1]; ATCC 19606 clone 5E7, run AB19606_3280_HS, evolved in HS_MHB", "result": 8, "unit": "µM"}, {"measurement": "MIC_value", "setting": "A. baumannii [1]; ATCC 19606 clone 5F1, run AB19606_3280_MHB, evolved in MHB", "result": ">128", "unit": "µM"}, {"measurement": "MIC_value", "setting": "A. baumannii [1]; ATCC 19606 clone 5F2, run AB19606_3280_MHB, evolved in MHB", "result": 16, "unit": "µM"}, {"measurement": "MIC_value", "setting": "A. baumannii [1]; ATCC 19606 clone 5F3, run AB19606_3280_MHB, evolved in MHB", "result": 16, "unit": "µM"}, {"measurement": "MIC_value", "setting": "A. baumannii [1]; ATCC 19606 clone 6E1, run AB19606_3280_HS, evolved in HS_MHB", "result": 8, "unit": "µM"}, {"measurement": "MIC_value", "setting": "A. baumannii [1]; ROB08705 clone 1C1, run ABR05_3280_HS, evolved in HS_MHB", "result": 4, "unit": "µM"}, {"measurement": "MIC_value", "setting": "A. baumannii [1]; ROB08705 clone 2C1, run ABR05_3280_MHB, evolved in MHB", "result": ">32", "unit": "µM"}, {"measurement": "MIC_value", "setting": "A. baumannii [1]; ROB08705 clone 2D1, run ABR05_3280_MHB, evolved in MHB", "result": 8, "unit": "µM"}, {"measurement": "MIC_value", "setting": "A. baumannii [1]; ROB08705 clone 3B1, run ABR05_3280_HS, evolved in HS_MHB", "result": 4, "unit": "µM"}, {"measurement": "MIC_value", "setting": "A. baumannii [1]; ROB08705 clone 3B1, run ABR05_3280_MHB, evolved in MHB", "result": "8 to 16", "unit": "µM"}, {"measurement": "MIC_value", "setting": "A. baumannii [1]; ROB08705 clone 3B3, run ABR05_3280_HS, evolved in HS_MHB", "result": "4 to 8", "unit": "µM"}, {"measurement": "MIC_value", "setting": "A. baumannii [1]; ROB08705 clone 3B4, run ABR05_3280_HS, evolved in HS_MHB", "result": 16, "unit": "µM"}, {"measurement": "MIC_value", "setting": "A. baumannii [1]; ROB08705 clone 3B5, run ABR05_3280_HS, evolved in HS_MHB", "result": 2, "unit": "µM"}, {"measurement": "MIC_value", "setting": "A. baumannii [1]; ROB08705 clone 3B6, run ABR05_3280_HS, evolved in HS_MHB", "result": 1, "unit": "µM"}, {"measurement": "MIC_value", "setting": "A. baumannii [1]; ROB08705 clone 4B1, run ABR05_3280_HS, evolved in HS_MHB", "result": 128, "unit": "µM"}, {"measurement": "MIC_value", "setting": "A. baumannii [1]; ROB08705 clone 4B2, run ABR05_3280_HS, evolved in HS_MHB", "result": 4, "unit": "µM"}, {"measurement": "MIC_value", "setting": "A. baumannii [1]; ROB08705 clone 4D1, run ABR05_3280_MHB, evolved in MHB", "result": 4, "unit": "µM"}, {"measurement": "MIC_value", "setting": "A. baumannii [1]; ROB08705 clone 5C2, run ABR05_3280_HS, evolved in HS_MHB", "result": 4, "unit": "µM"}, {"measurement": "MIC_value", "setting": "A. baumannii [1]; ROB08705 clone 5C3, run ABR05_3280_HS, evolved in HS_MHB", "result": 32, "unit": "µM"}, {"measurement": "MIC_value", "setting": "A. baumannii [1]; ROB08705 clone 5C5, run ABR05_3280_HS, evolved in HS_MHB", "result": 8, "unit": "µM"}, {"measurement": "MIC_value", "setting": "A. baumannii [1]; ROB08706 clone 1D1, run ABR06_3280_MHB, evolved in MHB", "result": "32 to 64", "unit": "µM"}, {"measurement": "MIC_value", "setting": "A. baumannii [1]; ROB08706 clone 1E1, run ABR06_3280_HS, evolved in HS_MHB", "result": "4 to 8", "unit": "µM"}, {"measurement": "MIC_value", "setting": "A. baumannii [1]; ROB08706 clone 1E2, run ABR06_3280_HS, evolved in HS_MHB", "result": 64, "unit": "µM"}, {"measurement": "MIC_value", "setting": "A. baumannii [1]; ROB08706 clone 2C1, run ABR06_3280_MHB, evolved in MHB", "result": 32, "unit": "µM"}, {"measurement": "MIC_value", "setting": "A. baumannii [1]; ROB08706 clone 2C3, run ABR06_3280_MHB, evolved in MHB", "result": 4, "unit": "µM"}, {"measurement": "MIC_value", "setting": "A. baumannii [1]; ROB08706 clone 2D1, run ABR06_3280_HS, evolved in HS_MHB", "result": 2, "unit": "µM"}, {"measurement": "MIC_value", "setting": "A. baumannii [1]; ROB08706 clone 2D5, run ABR06_3280_HS, evolved in HS_MHB", "result": 4, "unit": "µM"}, {"measurement": "MIC_value", "setting": "A. baumannii [1]; ROB08706 clone 2D6, run ABR06_3280_HS, evolved in HS_MHB", "result": 4, "unit": "µM"}, {"measurement": "MIC_value", "setting": "A. baumannii [1]; ROB08706 clone 2D7, run ABR06_3280_HS, evolved in HS_MHB", "result": 2, "unit": "µM"}, {"measurement": "MIC_value", "setting": "A. baumannii [1]; ROB08706 clone 2E1, run ABR06_3280_HS, evolved in HS_MHB", "result": 32, "unit": "µM"}, {"measurement": "MIC_value", "setting": "A. baumannii [1]; ROB08706 clone 3B3, run ABR06_3280_MHB, evolved in MHB", "result": 4, "unit": "µM"}, {"measurement": "MIC_value", "setting": "A. baumannii [1]; ROB08706 clone 3E1, run ABR06_3280_HS, evolved in HS_MHB", "result": 4, "unit": "µM"}, {"measurement": "MIC_value", "setting": "A. baumannii [1]; ROB08706 clone 4D1, run ABR06_3280_MHB, evolved in MHB", "result": "8 to 16", "unit": "µM"}, {"measurement": "MIC_value", "setting": "A. baumannii [1]; ROB08706 clone 4D2, run ABR06_3280_MHB, evolved in MHB", "result": "4 to 8", "unit": "µM"}, {"measurement": "MIC_value", "setting": "A. baumannii [1]; ROB08706 clone 4E1, run ABR06_3280_HS, evolved in HS_MHB", "result": 4, "unit": "µM"}, {"measurement": "MIC_value", "setting": "A. baumannii [1]; ROB08706 clone 5C1, run ABR06_3280_MHB, evolved in MHB", "result": 4, "unit": "µM"}, {"measurement": "MIC_value", "setting": "A. baumannii [1]; ROB08706 clone 5D3, run ABR06_3280_MHB, evolved in MHB", "result": "4 to 8", "unit": "µM"}, {"measurement": "MIC", "setting": "A. baumannii [2]; ACC00445", "result": 0.25, "unit": "µg/mL"}, {"measurement": "MIC", "setting": "A. baumannii [2]; ACC00535", "result": 0.12, "unit": "µg/mL"}, {"measurement": "MIC", "setting": "A. baumannii [2]; ACC01073", "result": 1, "unit": "µg/mL"}, {"measurement": "MIC", "setting": "A. baumannii [2]; ACC01077", "result": 0.25, "unit": "µg/mL"}, {"measurement": "MIC", "setting": "A. baumannii [2]; ACC01085/AR0307", "result": 0.25, "unit": "µg/mL"}, {"measurement": "MIC", "setting": "A. baumannii [2]; ATCCBAA747, ATCC BAA-747", "result": 0.12, "unit": "µg/mL"}, {"measurement": "MIC", "setting": "A. baumannii [2]; ROB08706", "result": 1, "unit": "µg/mL"}, {"measurement": "MIC", "setting": "A. baumannii [2]; ROB08708", "result": 0.12, "unit": "µg/mL"}]}
